Holding throughout (assay): relative viability (nuclei count vs DMSO), 5 days (fraction); higher = more cells survive
Compound in experiment [1]: COc1cccc2c1C(=O)c1c(O)c3c(c(O)c1C2=O)C[C@@](O)(C(=O)CO)C[C@@H]3O[C@H]1C[C@H](N)[C@H](O)[C@H](C)O1 [Doxorubicin] + COc1cccc2cc(-c3nc([C@H]4CC[C@H](C(=O)O)CC4)n4ncnc(N)c34)[nH]c12 [OSI-027] (partner 0.5 µM)
In a few lines: (§1)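 Relative viability divides the nuclei count in treated wells by that in vehicle wells. Lung cancer cell lines were seeded in 1536-well plates, dosed by pin tool the next day, and fixed and stained after 5 days in one step with final 0.05% Triton X-100, 1% formaldehyde and 1 ug/ml Hoechst. Dosing was a single drug or a fixed anchor-drug dose plus five library-drug doses (not always all listed) in √10 steps, and values are medians of duplicate plates imaged at 4×.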

Compound in experiment [2]: COc1cccc2c1C(=O)c1c(O)c3c(c(O)c1C2=O)C[C@@](O)(C(=O)CO)C[C@@H]3O[C@H]1C[C@H](N)[C@H](O)[C@H](C)O1 [Doxorubicin] + CC(=O)Nc1cccc(-n2c(=O)n(C3CC3)c(=O)c3c(Nc4ccc(I)cc4F)n(C)c(=O)c(C)c32)c1 [Trametinib] (partner 0.02 µM)
In a few lines: as §1

Compound in experiment [3]: COC1=C(C=C(C=C1)C2=CC3=NC=CN3C(=N2)NC4=C(C=CC=N4)C(=O)N)OC [BAY61-3606] + O=C(c1cc(Cc2n[nH]c(=O)c3ccccc23)ccc1F)N1CCN(C(=O)C2CC2)CC1 [Olaparib] (partner 8 µM)
In a few lines: as §1

Compound in experiment [4]: COc1cccc2c1C(=O)c1c(O)c3c(c(O)c1C2=O)C[C@@](O)(C(=O)CO)C[C@@H]3O[C@H]1C[C@H](N)[C@H](O)[C@H](C)O1 [Doxorubicin] + C[C@@H](Oc1cc(-c2cnn(C3CCNCC3)c2)cnc1N)c1c(Cl)ccc(F)c1Cl [Crizotinib] (partner 1 µM)
In a few lines:
as §1

As to NCI-H1648, the relative viability in experiment [1] (first compound 0.001 µM) was found to be 0.291; in experiment [1] (first compound 0.003162 µM) it was 0.276; in experiment [1] (first compound 0.01 µM), 0.261; in experiment [1] (first compound 0.03162 µM), 0.259; in experiment [1] (first compound 0.1 µM), 0.266; in experiment [2] (first compound 0.001 µM) it was 0.474. The relative viability was determined as 0.429 in experiment [2] (first compound 0.003162 µM); 0.555 in experiment [2] (first compound 0.01 µM); 0.492 in experiment [2] (first compound 0.03162 µM); 0.541 in experiment [2] (first compound 0.1 µM); 0.766 in experiment [3] (first compound 0.02 µM); 0.982 in experiment [3] (first compound 0.06325 µM). For the same cell line, the relative viability in experiment [3] (first compound 0.2 µM) came out at 0.736; in experiment [3] (first compound 2 µM), 0.765.

Regarding NCI-H1793, the relative viability in experiment [1] (first compound 0.003162 µM) is 0.334; in experiment [1] (first compound 0.01 µM), 0.253; in experiment [1] (first compound 0.03162 µM) it was 0.265; in experiment [1] (first compound 0.1 µM), 0.292; in experiment [2] (first compound 0.003162 µM), 0.4; in experiment [2] (first compound 0.01 µM), 0.373. In addition, the relative viability in experiment [2] (first compound 0.03162 µM) stood at 0.4; in experiment [2] (first compound 0.1 µM), 0.4; in experiment [3] (first compound 0.02 µM), 0.988; in experiment [3] (first compound 0.06325 µM), 0.814; in experiment [3] (first compound 0.2 µM) it was 1; in experiment [3] (first compound 0.6325 µM) it was 1.03. Further, the relative viability in experiment [3] (first compound 2 µM) came out at 0.718.

In the case of SK-LU-1, the relative viability in experiment [4] (first compound 0.001 µM) was determined as 1.15; in experiment [4] (first compound 0.003162 µM), 1.03; in experiment [4] (first compound 0.01 µM), 0.639; in experiment [4] (first compound 0.03162 µM) it was 0.472; in experiment [4] (first compound 0.1 µM), 0.32; in experiment [1] (first compound 0.001 µM), 0.359. Also, the relative viability in experiment [1] (first compound 0.003162 µM) worked out at 0.297; in experiment [1] (first compound 0.01 µM), 0.28; in experiment [1] (first compound 0.03162 µM), 0.224; in experiment [1] (first compound 0.1 µM), 0.173; in experiment [2] (first compound 0.001 µM), 0.375; in experiment [2] (first compound 0.003162 µM), 0.528. In addition, the relative viability was 0.445 in experiment [2] (first compound 0.01 µM); 0.361 in experiment [2] (first compound 0.03162 µM); 0.282 in experiment [2] (first compound 0.1 µM); 0.599 in experiment [3] (first compound 0.02 µM); 0.458 in experiment [3] (first compound 0.06325 µM); 0.646 in experiment [3] (first compound 0.2 µM). Moreover, the relative viability in experiment [3] (first compound 0.6325 µM) came out at 0.429; in experiment [3] (first compound 2 µM), 0.355.

HCC-44: the relative viability in experiment [4] (first compound 0.001 µM) is 0.868; in experiment [4] (first compound 0.003162 µM), 0.915; in experiment [4] (first compound 0.01 µM), 0.824; in experiment [4] (first compound 0.03162 µM), 0.81; in experiment [4] (first compound 0.1 µM), 0.785; in experiment [1] (first compound 0.001 µM), 0.35. Besides, the relative viability came to 0.575 in experiment [1] (first compound 0.003162 µM); 0.63 in experiment [1] (first compound 0.01 µM); 0.381 in experiment [1] (first compound 0.03162 µM); 0.322 in experiment [1] (first compound 0.1 µM); 0.987 in experiment [2] (first compound 0.001 µM); 1.11 in experiment [2] (first compound 0.003162 µM). The relative viability in experiment [2] (first compound 0.01 µM) amounted to 1.05; in experiment [2] (first compound 0.03162 µM), 1.05; in experiment [2] (first compound 0.1 µM), 1.07; in experiment [3] (first compound 0.02 µM), 0.955; in experiment [3] (first compound 0.06325 µM), 0.974; in experiment [3] (first compound 0.2 µM), 0.979. In addition, the relative viability in experiment [3] (first compound 0.6325 µM) turned out to be 0.901; in experiment [3] (first compound 2 µM), 0.958.

In the case of 201T, the relative viability in experiment [4] (first compound 0.001 µM) came out at 1; in experiment [4] (first compound 0.003162 µM) it was 1.07; in experiment [4] (first compound 0.01 µM), 1.05; in experiment [4] (first compound 0.03162 µM) it was 1.05; in experiment [4] (first compound 0.1 µM) it was 1.04; in experiment [1] (first compound 0.001 µM), 0.494. Moreover, the relative viability came out at 0.838 in experiment [1] (first compound 0.003162 µM); 0.724 in experiment [1] (first compound 0.01 µM); 0.638 in experiment [1] (first compound 0.03162 µM); 0.274 in experiment [1] (first compound 0.1 µM); 0.699 in experiment [2] (first compound 0.001 µM); 0.727 in experiment [2] (first compound 0.003162 µM). In addition, the relative viability in experiment [2] (first compound 0.01 µM) amounted to 0.709; in experiment [2] (first compound 0.03162 µM), 0.71; in experiment [2] (first compound 0.1 µM), 0.736; in experiment [3] (first compound 0.02 µM) it was 0.833; in experiment [3] (first compound 0.06325 µM) it was 0.842; in experiment [3] (first compound 0.2 µM), 0.865. Moreover, the relative viability came out at 0.838 in experiment [3] (first compound 0.6325 µM) and 0.824 in experiment [3] (first compound 2 µM).

Consider HOP-62, for which the relative viability in experiment [4] (first compound 0.001 µM) came to 1.04; in experiment [4] (first compound 0.003162 µM), 1.02; in experiment [4] (first compound 0.01 µM), 0.956; in experiment [4] (first compound 0.03162 µM), 0.901; in experiment [4] (first compound 0.1 µM), 1.01; in experiment [1] (first compound 0.001 µM) it was 0.832. Moreover, the relative viability in experiment [1] (first compound 0.003162 µM) is 0.759; in experiment [1] (first compound 0.01 µM) it was 0.798; in experiment [1] (first compound 0.03162 µM), 0.719; in experiment [1] (first compound 0.1 µM), 0.767; in experiment [2] (first compound 0.001 µM) it was 0.373; in experiment [2] (first compound 0.003162 µM) it was 0.389. Further, the relative viability is 0.413 in experiment [2] (first compound 0.01 µM); 0.411 in experiment [2] (first compound 0.03162 µM); 0.373 in experiment [2] (first compound 0.1 µM); 0.476 in experiment [3] (first compound 0.02 µM); 0.569 in experiment [3] (first compound 0.06325 µM); 0.279 in experiment [3] (first compound 0.2 µM). Also, the relative viability was 0.505 in experiment [3] (first compound 0.6325 µM) and 0.376 in experiment [3] (first compound 2 µM).

For NCI-H838, the relative viability in experiment [4] (first compound 0.001 µM) came out at 0.8; in experiment [4] (first compound 0.003162 µM), 0.877; in experiment [4] (first compound 0.01 µM) it was 0.87; in experiment [4] (first compound 0.03162 µM) it was 0.417; in experiment [4] (first compound 0.1 µM) it was 0.234; in experiment [1] (first compound 0.001 µM), 0.421. Besides, the relative viability in experiment [1] (first compound 0.003162 µM) came out at 0.429; in experiment [1] (first compound 0.01 µM), 0.387; in experiment [1] (first compound 0.03162 µM), 0.39; in experiment [1] (first compound 0.1 µM), 0.328; in experiment [2] (first compound 0.001 µM), 0.515; in experiment [2] (first compound 0.003162 µM), 0.612. Moreover, the relative viability amounted to 0.536 in experiment [2] (first compound 0.01 µM); 0.294 in experiment [2] (first compound 0.03162 µM); 0.239 in experiment [2] (first compound 0.1 µM); 0.802 in experiment [3] (first compound 0.02 µM); 0.847 in experiment [3] (first compound 0.06325 µM); 0.751 in experiment [3] (first compound 0.2 µM). Moreover, the values for the relative viability in experiment [3] (first compound 0.6325 µM) and in experiment [3] (first compound 2 µM) were 0.729 and 0.571, respectively.

As for NCI-H2085, the relative viability in experiment [4] (first compound 0.001 µM) came out at 0.924; in experiment [4] (first compound 0.003162 µM) it was 0.97; in experiment [4] (first compound 0.01 µM), 0.943; in experiment [4] (first compound 0.03162 µM), 0.648; in experiment [4] (first compound 0.1 µM), 0.63; in experiment [1] (first compound 0.001 µM) it was 0.786. Besides, the relative viability in experiment [1] (first compound 0.003162 µM) turned out to be 0.784; in experiment [1] (first compound 0.01 µM), 0.667; in experiment [1] (first compound 0.03162 µM) it was 0.679; in experiment [1] (first compound 0.1 µM) it was 0.589; in experiment [2] (first compound 0.001 µM) it was 0.623; in experiment [2] (first compound 0.003162 µM) it was 0.557. Besides, the relative viability in experiment [2] (first compound 0.01 µM) came to 0.564; in experiment [2] (first compound 0.03162 µM), 0.472; in experiment [2] (first compound 0.1 µM) it was 0.496; in experiment [3] (first compound 0.02 µM), 0.863; in experiment [3] (first compound 0.06325 µM), 0.868; in experiment [3] (first compound 0.2 µM) it was 0.726. In addition, the results for the relative viability in experiment [3] (first compound 0.6325 µM) and in experiment [3] (first compound 2 µM) were 0.843 and 0.698, respectively.
